Like-named read-outs stand apart in the source and are kept apart here. Non-standard residues stand in square brackets, D forms with d. Residues, ends and D or L forms follow the SMILES beside them. *: point of attachment. dNMeF = CN[C@H](Cc1ccccc1)C(=O)O; Cha = N[C@@H](CC1CCCCC1)C(=O)O; NMeK = CN[C@@H](CCCCN)C(=O)O; dNMeK = CN[C@H](CCCCN)C(=O)O; ClZ = O=C(OCc1ccccc1Cl)*; Bn = c1ccc(C*)cc1
Assays:
[1] = system: HCT-116 colon cancer cells; assay: 3H-thymidine uptake cytotoxicity assay; format: cell-based
[2] = system: colon cancers; details: drug of choice for colon cancer treatment; no reference given; cited from earlier work

Structure (SMILES): CC(C)C[C@@H]1NC(=O)[C@H](Cc2ccccc2)NC(=O)[C@@H](Cc2ccccc2)NC(=O)[C@@H](CCCCNC(=O)OCc2ccccc2Cl)N(C)C(=O)[C@H](C(C)C)NC1=O [Compound 41, Phe-Leu-Val-N-Me-D-Lys(Cl-Cbz)-D-Phe] (cyclo(FLV[dNMeK](ClZ)[dF]))
- cytotoxicity (in words) [1]: not very potent at all

Structure (SMILES): CC(C)C[C@@H]1NC(=O)[C@H](Cc2ccccc2)NC(=O)[C@@H](Cc2ccccc2)N(C)C(=O)[C@@H](CCCCNC(=O)OCc2ccccc2Cl)NC(=O)[C@H](C(C)C)NC1=O [Compound 42, Phe-Leu-Val-D-Lys(Cl-Cbz)-N-Me-D-Phe] (cyclo(FLV[dK](ClZ)[dNMeF]))
- cytotoxicity (in words) [1]: remarkable cytotoxicity

Structure (SMILES): CC(C)[C@H]1NC(=O)[C@@H](Cc2ccccc2)NC(=O)[C@H](Cc2ccccc2)NC(=O)[C@H](COCc2ccccc2)NC(=O)[C@H](CC2CCCCC2)NC1=O [Compound 20, Phe-D-Phe-D-Val-Cha-Ser(Bn)] (cyclo([Cha]S(Bn)F[dF][dV]))
- cytotoxicity (in words) [1]: little cytotoxic activity

Structure (SMILES): CC(C)C[C@@H]1NC(=O)[C@H](C(C)C)NC(=O)[C@@H](Cc2ccccc2)N(C)C(=O)[C@H](Cc2ccccc2)NC(=O)[C@H](CCCCN)NC1=O [Compound 30, Phe-N-Me-D-Phe-Val-Leu-Lys] (cyclo(F[dNMeF]VLK))
- cytotoxicity (in words) [1]: not active

Structure (SMILES): CC(C)C[C@@H]1NC(=O)[C@H](Cc2ccccc2)NC(=O)[C@H](CCCCN)NC(=O)[C@H](CC(C)C)NC(=O)[C@H](C(C)C)NC1=O [Compound 32, Phe-Leu-Val-Leu-Lys] (cyclo(FLVLK))
- cytotoxicity (in words) [1]: inactive

Structure (SMILES): O=c1[nH]cc(F)c(=O)[nH]1 [Compound 5-FU, 5-fluorouracil]
- IC50 [2]: 5 µM

Structure (SMILES): CC(C)C[C@@H]1NC(=O)[C@H](Cc2ccccc2)NC(=O)[C@H](CCCCN)NC(=O)[C@H](CC(C)C)NC(=O)[C@@H](C(C)C)NC1=O [Compound 37, Phe-Leu-D-Val-Leu-Lys] (cyclo(FL[dV]LK))
- cytotoxicity (in words) [1]: inactive

Structure (SMILES): CC(C)[C@H]1NC(=O)[C@@H](Cc2ccccc2)N(C)C(=O)[C@H](Cc2ccccc2)NC(=O)[C@H](COCc2ccccc2)NC(=O)[C@H](CC2CCCCC2)NC1=O [Compound 19, Phe-N-Me-D-Phe-D-Val-Cha-Ser(Bn)] (cyclo([Cha]S(Bn)F[dNMeF][dV]))
- half-life (Half-life (minutes) n1, n1): 45 min
- half-life (Half-life (minutes) n2, n2): 30 min

Structure (SMILES): CC(C)C[C@@H]1NC(=O)[C@H](Cc2ccccc2)NC(=O)[C@H](CCCCN)N(C)C(=O)[C@H](CC(C)C)NC(=O)[C@H](C(C)C)NC1=O [Compound 35, Phe-Leu-Val-Leu-N-Me-Lys] (cyclo(FLVL[NMeK]))
- cytotoxicity (in words) [1]: inactive
